Results from US9611277B2 (Janssen Pharmaceutica NV, priority 2013, dated 2017).
Like-named read-outs stand apart in the source and are kept apart here.

Key:
rat orexin 1 receptor = rat orexin 1 receptor (Rattus norvegicus, UniProt P56718); test: Rat orexin 1 receptor radioligand binding
Protocol: (§1) Data are analyzed using pc-Sandy macro and graphed on Graphpad Prism 5. For analysis, each concentration point is averaged from triplicate values and the averaged values are plotted on Graphpad Prism. The IC50 was determined by applying the following equation (GraphPad Prism 5.0, SanDiego) for one site competition where X=log (concentration) and Y=specific binding. Top denotes the total [^3H]-(1-(5-(2-fluoro-phenyl)-2-methyl-thiazol-4-yl)-1-((S)-2-(5-phenyl-(1,3,4)oxadiazol-2-ylmethyl)-pyrrolidin-1-yl)-methanone) binding, bottom denotes the nonspecific [^3H]-(1-(5-(2-fluoro-phenyl)-2-methyl-thiazol-4-yl)-1-((S)-2-(5-phenyl-(1,3,4)oxadiazol-2-ylmethyl)-pyrrolidin-1-yl)-methanone) binding. Graphpad Prism calculates Ki value from IC50 and the pre-determined Kd values for [^3H]-(1-(5-(2-fluoro-phenyl)-2-methyl-thiazol-4-yl)-1-((S)-2-(5-phenyl-(1,3,4)oxadiazol-2-ylmethyl)-pyrrolidin-1-yl)-methanone) and [3H]-EMPA. The Ki for each compound is then uploaded into 3DX. Each run comprises individual compounds in triplicate. The data in Table 1 and Table 2 represent averages from between 2-20 runs
Rat and Human Orexin 1 Receptor Radioligand Binding Studies
(§2) After centrifugation (2K×G, 5 min at 4° C.), the supernatant was aspirated and the pellets frozen and stored at −80° C. […] Each cell pellet from a 15 cm plate was resuspended in 10 mL, stored on ice, and homogenized for 45 sec prior to addition to the reactions. […] The final concentration of DMSO in the reactions is equal to or less than 0.1%. Total and nonspecific binding was determined in the absence and presence of 10 μM almorexant. The total volume of each reaction is 200 μL (20 μL of diluted compounds, 80 μL of [^3H]-(1-(5-(2-fluoro-phenyl)-2-methyl-thiazol-4-yl)-1-((S)-2-(5-phenyl-(1,3,4)oxadiazol-2-ylmethyl)-pyrrolidin-1-yl)-methanone) diluted in PBS and 100 μL of the cell suspension). […] The plates were washed 3 times by aspirating 30 ml PBS through the plates. Plates were dried in 55° C. oven for 60 min, scintillation fluid was added, and the radioactivity was counted on a Topcount (Packard).

human orexin 2 receptor = human orexin 2 receptor (Homo sapiens (Human), UniProt O43614); test: Human orexin 2 receptor radioligand binding; details: human orexin 2 receptor; averages of 2-20 runs; read-out: hOX2 Ki
Chain of human orexin 2 receptor (O43614 whole entry): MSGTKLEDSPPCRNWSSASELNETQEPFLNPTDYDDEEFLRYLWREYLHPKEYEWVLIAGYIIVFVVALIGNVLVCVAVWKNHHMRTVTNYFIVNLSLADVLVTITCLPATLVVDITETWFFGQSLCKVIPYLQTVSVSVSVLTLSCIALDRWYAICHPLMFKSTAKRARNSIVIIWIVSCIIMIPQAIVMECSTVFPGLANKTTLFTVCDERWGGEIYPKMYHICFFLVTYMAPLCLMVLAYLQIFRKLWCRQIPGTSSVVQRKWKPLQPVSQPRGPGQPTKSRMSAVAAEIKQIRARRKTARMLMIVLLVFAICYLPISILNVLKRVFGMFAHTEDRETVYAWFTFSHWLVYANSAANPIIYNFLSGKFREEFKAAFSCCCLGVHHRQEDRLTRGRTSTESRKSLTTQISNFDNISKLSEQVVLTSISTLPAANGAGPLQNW
Protocol: as §1
Human Orexin 2 Receptor Radioligand Binding Studies
as §2, with “HEK293 stably expressing human orexin 2 receptor (Genebank accession number NM_001526) were grown to confluency in DMEM (Hyclone, cat # SH30022), 10% FBS, 1× Pen/Strep, 1× NaPyruvate, 10 mM HEPES, 600 ug/ml G418 media on 150 cm^2 tissue culture plates, washed with 5 mM EDTA in PBS (HyClone Dulbecco's Phosphate Buffered Saline 1× with Calcium and Magnesium, Cat # SH30264.01, hereafter referred to simply as PBS) and scraped into 50 ml tubes. After” for “After”, “sec just” for “sec”, “[^3H]-EMPA” for “[^3H]-(1-(5-(2-fluoro-phenyl)-2-methyl-thiazol-4-yl)-1-((S)-2-(5-phenyl-(1,3,4)oxadiazol-2-ylmethyl)-pyrrolidin-1-yl)-methanone)”

[1] = rat orexin 1 receptor, averages of 2-20 runs, read-out: rOX1 Ki

| SMILES | Ki (rat orexin 1 receptor; [1]) | Ki (human orexin 2 receptor) | Ki (rat orexin 1 receptor) |
| --- | --- | --- | --- |
| Cc1nc2sccn2c1C(=O)N1CC2CC(Oc3ccc(C(F)(F)F)cn3)C1C2 (racemic) [Example 6, (R/S)-(6-methylimidazo[2,1-b]thiazol-5-yl)(6-((5-(trifluoromethyl)pyridin-2-yl)oxy)-2-azabicyclo[2.2.1]heptan-2-yl)methanone] | > 10000 nM | > 10000 nM | – |
| O=C(c1cccc(F)c1-n1nccn1)N1CC2CCC1C(Oc1ccc(C(F)(F)F)cn1)C2 (racemic) [Example 249, (R/S)-(3-fluoro-2-(2H-1,2,3-triazol-2-yl)phenyl)(6-((5-(trifluoromethyl)pyridin-2-yl)oxy)-2-azabicyclo[2.2.2]octan-2-yl)methanone] | – | 758 nM | – |
| O=C(c1ccccc1-n1nccn1)N1CC2CCC1C(Nc1cnc(C(F)(F)F)cn1)C2 (racemic) [Example 254, (R/S)-(2-(2H-1,2,3-triazol-2-yl)phenyl)(6-((5-(trifluoromethyl)pyrazin-2-yl)amino)-2-azabicyclo[2.2.2]octan-2-yl)methanone] | – | 307 nM | 12 nM |
| O=C(c1cccc(F)c1-n1nccn1)N1CC2CCC1C(Nc1cnc(C(F)(F)F)cn1)C2 (racemic) [Example 255, (R/S)-(3-fluoro-2-(2H-1,2,3-triazol-2-yl)phenyl)(6-((5-(trifluoromethyl)pyrazin-2-yl)amino)-2-azabicyclo[2.2.2]octan-2-yl)methanone] | – | 1000 nM | – |
| COc1cccc(-c2ccn[nH]2)c1C(=O)N1C[C@H]2C[C@@H](Oc3ccc(C(F)(F)F)cn3)[C@@H]1C2 [Example 39, (2-methoxy-6-(1H-pyrazol-5-yl)phenyl)((1S,4R,6R)-6-((5-(trifluoromethyl)pyridin-2-yl)oxy)-2-azabicyclo[2.2.1]heptan-2-yl)methanone] | 72 nM | – | – |
| O=C(c1cc(F)ccc1-n1nccn1)N1C[C@H]2C[C@@H](Nc3ccc(C(F)(F)F)cn3)[C@@H]1C2 [Example 57, (5-fluoro-2-(2H-1,2,3-triazol-2-yl)phenyl)((1S,4S,6R)-6-((5-(trifluoromethyl)pyridin-2-yl)amino)-2-azabicyclo[2.2.1]heptan-2-yl)methanone] | 5 nM | 225 nM | – |
| Cc1cnc(O[C@@H]2C[C@H]3C[C@@H]2N(C(=O)c2nc(C)ccc2-n2nccn2)C3)nc1 [Example 132, (6-methyl-3-(2H-1,2,3-triazol-2-yl)pyridin-2-yl)((1S,4R,6R)-6-((5-methylpyrimidin-2-yl)oxy)-2-azabicyclo[2.2.1]heptan-2-yl)methanone] | 425 nM | 6800 nM | – |
| CCc1cnc(O[C@@H]2C[C@H]3C[C@@H]2N(C(=O)c2nc(C)ccc2-n2nccn2)C3)nc1 [Example 136, ((1S,4R,6R)-6-((5-ethylpyrimidin-2-yl)oxy)-2-azabicyclo[2.2.1]heptan-2-yl)(6-methyl-3-(2H-1,2,3-triazol-2-yl)pyridin-2-yl)methanone] | 380 nM | 4700 nM | – |
| Cc1ccc(-n2nccn2)c(C(=O)N2C[C@H]3C[C@@H](Oc4ccc(C(F)(F)F)nn4)[C@@H]2C3)n1 [Example 140, (6-methyl-3-(2H-1,2,3-triazol-2-yl)pyridin-2-yl)((1S,4R,6R)-6-((6-(trifluoromethyl)pyridazin-3-yl)oxy)-2-azabicyclo[2.2.1]heptan-2-yl)methanone] | 330 nM | 7700 nM | – |
| O=C(c1cccc(F)c1-n1nccn1)N1C[C@@H]2CC[C@H]1[C@H](Nc1cnc(C(F)(F)F)cn1)C2 [Example 274, (3-fluoro-2-(2H-1,2,3-triazol-2-yl)phenyl)((1S,4R,6R)-6-((5-(trifluoromethyl)pyrazin-2-yl)amino)-2-azabicyclo[2.2.2]octan-2-yl)methanone] | – | 534 nM | – |
| COc1cccc(-n2nccn2)c1C(=O)N1C[C@H]2C[C@@H](Oc3ccc(C(F)(F)F)cn3)[C@@H]1C2 [Example 289, (2-methoxy-6-(2H-1,2,3-triazol-2-yl)phenyl)((1S,4R,6R)-6-((5-(trifluoromethyl)pyridin-2-yl)oxy)-2-azabicyclo[2.2.1]heptan-2-yl)methanone] | – | 207 nM | – |

Continued, in another order:

| Ki (rat orexin 1 receptor; [1]) | Ki (human orexin 2 receptor) | SMILES | Ki (rat orexin 1 receptor) |
| --- | --- | --- | --- |
| – | 633 nM | O=C(c1c(F)cccc1-c1ncccn1)N1C[C@H]2C[C@@H](Oc3ccc(C(F)(F)F)cn3)[C@@H]1C2 [Example 38, (2-fluoro-6-(pyrimidin-2-yl)phenyl)((1S,4R,6R)-6-((5-(trifluoromethyl)pyridin-2-yl)oxy)-2-azabicyclo[2.2.1]heptan-2-yl)methanone] | – |
| 15 nM | – | COc1cccc(-c2ncccn2)c1C(=O)N1C[C@H]2C[C@@H](Oc3ccc(C(F)(F)F)cn3)[C@@H]1C2 [Example 40, (2-methoxy-6-(pyrimidin-2-yl)phenyl)((1S,4R,6R)-6-((5-(trifluoromethyl)pyridin-2-yl)oxy)-2-azabicyclo[2.2.1]heptan-2-yl)methanone] | – |
| 320 nM | 1700 nM | O=C(c1cccc(F)c1-c1ncccn1)N1C[C@H]2C[C@@H](Oc3ncccc3C(F)(F)F)[C@@H]1C2 [Example 96, (3-fluoro-2-(pyrimidin-2-yl)phenyl)((1S,4R,6R)-6-((3-(trifluoromethyl)pyridin-2-yl)oxy)-2-azabicyclo[2.2.1]heptan-2-yl)methanone] | – |
| 404 nM | 1600 nM | O=C(c1ccccc1-n1nccn1)N1C[C@H]2C[C@@H](Oc3ccccn3)[C@@H]1C2 [Example 102, (2-(2H-1,2,3-triazol-2-yl)phenyl)((1S,4R,6R)-6-(pyridin-2-yloxy)-2-azabicyclo[2.2.1]heptan-2-yl)methanone] | – |
| > 10000 nM | > 10000 nM | Cc1ccc(C(=O)N2C[C@H]3C[C@@H](Oc4ccccn4)[C@@H]2C3)c(-n2nccn2)n1 [Example 103, (6-methyl-2-(2H-1,2,3-triazol-2-yl)pyridin-3-yl)((1S,4R,6R)-6-(pyridin-2-yloxy)-2-azabicyclo[2.2.1]heptan-2-yl)methanone] | – |
| 497 nM | 5000 nM | O=C(c1cccc(F)c1-c1ncccn1)N1C[C@H]2C[C@@H](Oc3ccccn3)[C@@H]1C2 [Example 104, (3-fluoro-2-(pyrimidin-2-yl)phenyl)((1S,4R,6R)-6-(pyridin-2-yloxy)-2-azabicyclo[2.2.1]heptan-2-yl)methanone] | – |
| 262 nM | 3600 nM | Cc1ccc(-n2nccn2)c(C(=O)N2C[C@H]3C[C@@H](Oc4ccc(F)cn4)[C@@H]2C3)n1 [Example 119, ((1S,4R,6R)-6-((5-fluoropyridin-2-yl)oxy)-2-azabicyclo[2.2.1]heptan-2-yl)(6-methyl-3-(2H-1,2,3-triazol-2-yl)pyridin-2-yl)methanone] | – |
| 668 nM | > 10000 nM | Cc1cnc(O[C@@H]2C[C@H]3C[C@@H]2N(C(=O)c2ncc(C)cc2-c2ncccn2)C3)nc1 [Example 134, (5-methyl-3-(pyrimidin-2-yl)pyridin-2-yl)((1S,4R,6R)-6-((5-methylpyrimidin-2-yl)oxy)-2-azabicyclo[2.2.1]heptan-2-yl)methanone] | – |
| 300 nM | 2700 nM | CCc1cnc(O[C@@H]2C[C@H]3C[C@@H]2N(C(=O)c2nc(C)ccc2-c2ncccn2)C3)nc1 [Example 138, ((1S,4R,6R)-6-((5-ethylpyrimidin-2-yl)oxy)-2-azabicyclo[2.2.1]heptan-2-yl)(6-methyl-3-(pyrimidin-2-yl)pyridin-2-yl)methanone] | – |
| 376 nM | 7900 nM | Cc1ccc(-c2ncccn2)c(C(=O)N2C[C@H]3C[C@@H](Oc4ccc(C(F)(F)F)nn4)[C@@H]2C3)n1 [Example 142, (6-methyl-3-(pyrimidin-2-yl)pyridin-2-yl)((1S,4R,6R)-6-((6-(trifluoromethyl)pyridazin-3-yl)oxy)-2-azabicyclo[2.2.1]heptan-2-yl)methanone] | – |
